This note sets out measurements from patent US8071287B2, “Pharmaceutical and therapeutic applications relating to a type 9 adenylyl cyclase Polymorphism in asthma and reversible bronchial obstruction” (priority 2005, dated 2011).

The target of data set [1] is T1, Met772 AC9 (Homo sapiens, UniProt O60503, I772M).
T1 construct: expressed in transfected cells
T1 sequence (O60503 1-1353 I772M): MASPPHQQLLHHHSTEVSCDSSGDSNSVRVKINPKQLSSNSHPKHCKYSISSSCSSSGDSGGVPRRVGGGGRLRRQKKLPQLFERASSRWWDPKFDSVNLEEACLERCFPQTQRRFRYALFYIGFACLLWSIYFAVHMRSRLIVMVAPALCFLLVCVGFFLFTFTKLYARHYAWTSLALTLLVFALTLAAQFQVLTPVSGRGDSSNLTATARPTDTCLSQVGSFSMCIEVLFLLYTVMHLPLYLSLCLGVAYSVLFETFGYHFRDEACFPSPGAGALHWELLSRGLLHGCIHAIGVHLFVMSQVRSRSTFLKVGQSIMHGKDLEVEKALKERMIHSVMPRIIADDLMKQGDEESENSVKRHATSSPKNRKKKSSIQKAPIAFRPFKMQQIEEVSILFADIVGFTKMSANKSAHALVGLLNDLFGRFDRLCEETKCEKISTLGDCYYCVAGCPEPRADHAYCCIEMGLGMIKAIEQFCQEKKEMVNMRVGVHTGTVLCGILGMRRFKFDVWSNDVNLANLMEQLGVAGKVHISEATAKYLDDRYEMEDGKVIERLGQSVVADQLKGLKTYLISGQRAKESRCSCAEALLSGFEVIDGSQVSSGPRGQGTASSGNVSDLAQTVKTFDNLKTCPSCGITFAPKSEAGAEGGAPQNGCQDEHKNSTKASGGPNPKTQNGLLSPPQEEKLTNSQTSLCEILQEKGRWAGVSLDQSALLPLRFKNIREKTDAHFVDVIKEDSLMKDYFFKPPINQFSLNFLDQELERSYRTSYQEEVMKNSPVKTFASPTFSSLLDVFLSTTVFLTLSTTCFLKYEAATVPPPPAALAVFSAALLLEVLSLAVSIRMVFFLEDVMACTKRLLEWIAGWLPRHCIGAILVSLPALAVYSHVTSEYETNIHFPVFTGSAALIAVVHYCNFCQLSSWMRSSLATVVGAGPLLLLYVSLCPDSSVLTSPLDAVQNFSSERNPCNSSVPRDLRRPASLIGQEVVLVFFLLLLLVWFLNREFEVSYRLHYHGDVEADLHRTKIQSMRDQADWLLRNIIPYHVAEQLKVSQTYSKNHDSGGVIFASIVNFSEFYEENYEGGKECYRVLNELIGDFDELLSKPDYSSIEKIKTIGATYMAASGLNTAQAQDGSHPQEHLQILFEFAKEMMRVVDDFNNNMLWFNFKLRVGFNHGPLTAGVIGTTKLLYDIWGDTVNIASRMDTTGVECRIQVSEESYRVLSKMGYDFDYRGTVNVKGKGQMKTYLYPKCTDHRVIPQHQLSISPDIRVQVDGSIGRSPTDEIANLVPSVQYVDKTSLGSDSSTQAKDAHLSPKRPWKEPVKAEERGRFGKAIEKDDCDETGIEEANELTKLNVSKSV
Description: Adenylyl cyclase activities in membranes of A431 cells transfected with Met772 AC9. Type of data set: biochemical. As to conditions: 10 μM albuterol; for stimulated adenylyl cyclase activities of Met772 compared to WT: no corticosteroid, 1.8 mM MnCl2 or 10 mM NaF; for albuterol stimulated adenylyl cyclase activities: Met772 cells, N=5. An excerpt: (§1) The WT coding sequence for the human AC9 gene is considered that of GenBank accession number DQ005545. With the adenine of the initiator codon being considered nucleotide 1, a polymorphism consisting of an […] which results in […] (accession number DQ008441) was previously described in Small et al, Pharmacogenetics, 13, 535-541, supra. The cDNAs for […] (also referred to as WT) and […] coding regions were generated from human lymphocyte RNA, subcloned into pCNDA3, and transfections of A431 cells carried out as described. Selection of positive clones was carried out in media containing 400 μg/ml G418. Expression of AC9 was determined in individual clonal lines by Western blots (see below). A431 cells were grown in monolayers in Dulbecco's modified Eagle's medium with 4 mM […] 10% fetal bovine serum, 100 U/ml penicillin and 100 μg/ml streptomycin, at 37° in a 5% CO2 atmosphere. In some studies, cells at 90% confluency in the absence of serum were treated with 500 nM dexamethasone for 12 hours and then utilized as described below. […] M et al., “Beta1-adrenergic receptor polymorphisms confer differential function and predisposition to heart failure” Nat. Med., 9, 1300-1305 (2003). […] [^32P] cAMP was separated from […] by chromatography over alumina columns. The [^3H] cAMP standard included in the stop buffer accounted for individual column recovery.

Data set [2] addresses T2, WT (Ile772) AC9 (Homo sapiens, UniProt O60503).
T2 construct: expressed in transfected cells
T2 sequence (O60503 1-1353): T1 sequence (O60503 1-1353 I772M) with M772I
Description: Adenylyl cyclase activities in membranes of A431 cells transfected with WT (Ile772) AC9. The format is biochemical. As to conditions: for albuterol stimulated adenylyl cyclase activities: WT cells, 10 μM albuterol, N=5.
Text: as §1

Data set [3] deals with asthmatic children. Description: CAMP clinical cohort: bronchodilator response (FEV1) stratified by AC9 genotype. The format is in vivo, human. As to conditions: for Bronchodilator response at baseline: at randomization. The text has this:
The study cohort consisted of pediatric patients who participated in the Childhood Asthma Management Program (CAMP). The study was a multicenter, randomized, trial comparing regularly scheduled inhalation treatment with the corticosteroid budesonide, the putative mast-cell “stabilizer” nedocromil, and placebo. The study design has been previously published in “Long-term effects of budesonide or nedocromil in children with asthma” N. Engl. J. Med., 343, 1054-1063 (2000). […] Once per year a methacholine challenge was performed to ascertain bronchial hyperresponsiveness. The current study utilized archived DNA from patients who participated in the CAMP DNA Ancillary Study. Because of potential population stratification issues (the allele frequency of Met772 is ˜0.30 in Caucasians and ˜0.15 in African Americans) and the small number of African American children enrolled in CAMP (14%), the current study was confined to Caucasian children. […] The analysis was focused then, on 436 children, with follow-up through 48 months, the last time point in which nearly complete measures were obtained for the cohort. The subjects' parents provided informed consent, and the study was approved by the Institutional Review Boards of each participating center.
The AC9 SNP at nucleotide 2316 was genotyped via a SEQUENOM MassARRAY MALDI-TOF mass spectrometer (Sequenom, San Diego, Calif.) for analysis of unlabeled single-base extension minisequencing reactions with a semiautomated primer design program (Spectro[…], Sequenom). […] To assess for possible population stratification, a random panel of 49 SNPs across the genome (“stratification SNPs”), obtained through the SNP Consortium (TSC) database was also genotyped. SNPs were chosen that are widely distributed throughout the genome and exclude promoters, genomic UTRs, exons, and introns of known genes.
Bronchodilator response is defined as FEV1 after bronchodilator minus FEV1 before bronchodilator divided by FEV1 before bronchodilator times 100 [(Post-FEV1−Pre-FEV1)/(Pre-FEV1)×100]. Longitudinal models of bronchodilator response, using repeated measures modeling with time as a linear effect and an unstructured covariance matrix, are used. These models evaluate change in bronchodilator response beginning at the 2 month follow-up visit, allowing for evaluation of change based on treatment type. Univariate and multivariable analyses adjusting for age, sex, and bronchodilator response at baseline are performed, under the assumption of a dominant model. To test for interaction between steroid treatment and Ile772Met genotypic status, treatment specific strata was evaluated and included interaction terms in the models. A “mean bronchodilator” response is also derived by taking all of the observations over the 4 years and dividing by the number of visits. This value was used as the primary outcome in the haplotypic assessment of interactions between the β2AR locus and the AC9 polymorphism.

Data set [4] concerns β2AR. Description: 125I-CYP radioligand binding for endogenous β2AR density in transfected A431 cells. Type of data set: cell-based.
Description: The cDNAs for Ile772 (also referred to as WT) and Met772 coding regions were generated from human lymphocyte RNA, subcloned into pCNDA3, and transfections of A431 cells carried out as described. Selection of positive clones was carried out in media containing 400 μg/ml G418. Expression of AC9 was determined in individual clonal lines by Western blots (see below). A431 cells were grown in monolayers in Dulbecco's modified Eagle's medium with 4 mM L-glutamate 10% fetal bovine serum, 100 U/ml penicillin and 100 μg/ml streptomycin, at 37° in a 5% CO2 atmosphere. In some studies, cells at 90% confluency in the absence of serum were treated with 500 nM dexamethasone for 12 hours and then utilized as described below.
Transfected A431 cells were washed three times with phosphate-buffered saline (PBS), detached by scraping in 5 mM Tris, pH 7.4, 2 mM ethylenediaminetetracetic acid (EDTA) buffer, and centrifuged at 30,000 g for 10 min. […] Nonspecific binding was determined with 1 μM propranolol. […] AC9 expression in these transfected cell lines was assessed by quantitative immunoblotting so as to select lines expressing Ile772 or Met772 at the same levels for pharmacologic studies, and to ascertain if corticosteroid treatment altered expression. […] Relative levels of AC9 expression were subsequently determined using ScanAnalysis software (BioSoft, Cambridge, UK).
Setting [5] is: after dexamethasone treatment (500 nM).

Where a chain is given by its changes, count along the chain named.

For `[Cl][Mn][Cl]` [MnCl2], in data set [1], the “stimulated adenylyl cyclase activities of Met772 compared to WT” value is reported as “decreased compared to WT”.
In the case of `[F-].[Na+]` [NaF], the “stimulated adenylyl cyclase activities of Met772 compared to WT” value in data set [1] is reported as “decreased compared to WT”.
Regarding `CC(C)(C)NCC(O)c1ccc(O)c(CO)c1` (stereo not drawn) [albuterol], the “albuterol stimulated adenylyl cyclase activities” value in data set [2] (setting [5]) was determined as 33 ± 2.5 pmol/min/mg; in data set [2] (before dexamethasone treatment) it was 27 ± 2.1 pmol/min/mg; in data set [1] (setting [5]), 43 ± 3.4 pmol/min/mg; in data set [1] (before dexamethasone treatment), 24 ± 1.3 pmol/min/mg. Also, in data set [2] (cells expressing Ile772 cultured in the presence of glucocorticoid), the “increase of albuterol-stimulated adenylyl cyclase response” value is recorded as about 20%. The “Bronchodilator response at baseline” value in data set [3] (Met772 carriers) was found to be 11.17 ± 11.24; in data set [3] (WT patients), 10.32 ± 9.18. For the same molecule, the “average bronchodilator response (±SE), univariate” value in data set [3] (Overall Cohort, Met772, 4 year follow-up) amounted to 9.23 ± 0.34%; in data set [3] (Overall Cohort, Wildtype, 4 year follow-up) it was 9.41 ± 0.48%; in data set [3] (Placebo Group (no inhaled steroid), Met772), 9.94 ± 0.61%; in data set [3] (Placebo Group (no inhaled steroid), Wildtype), 10.92 ± 0.79%; in data set [3] (Steroid Group (inhaled budesonide), Met772) it was 8.72±0.54%; in data set [3] (Steroid Group (inhaled budesonide), Wildtype), 6.76±0.69%. Besides, the “average bronchodilator response (±SE), multivariate” value in data set [3] (Overall Cohort, Met772, adjusted for age, gender, inhaled steroid usage, baseline response, time) turned out to be 6.17 ± 0.92%; in data set [3] (Steroid Group (inhaled budesonide), Met772, adjusted), 5.78 ± 1.49%. The “stimulated adenylyl cyclase activities of Met772 compared to WT” value in data set [1] is given as “not different between the lines”.
With `CCCC1O[C@@H]2C[C@H]3[C@@H]4CCC5=CC(=O)C=C[C@]5(C)[C@H]4[C@@H](O)C[C@]3(C)[C@]2(C(=O)CO)O1` (stereo partly drawn) [budesonide], the “increase in bronchodilation response of Met772 carriers compared to wild type” value in data set [3] (on inhaled budesonide, univariate) is reported as about 2 percentage point.
On to `C[C@@H]1C[C@H]2[C@@H]3CCC4=CC(=O)C=C[C@]4(C)[C@@]3(F)[C@@H](O)C[C@]2(C)[C@@]1(O)C(=O)CO` [dexamethasone], for which the β2AR expression amounted to 109 ± 9.0 fmol/mg in data set [4] (Met772 AC9 line after corticosteroid (dexamethasone) exposure, untreated 66±8.9) and 103 ± 7.8 fmol/mg in data set [4] (WT AC9 line after corticosteroid (dexamethasone) exposure, untreated 51±6.2).
